Experimental data from US12497642B2, “Incorporation of unnatural nucleotides and methods of use in vivo thereof” (THE SCRIPPS RESEARCH INSTITUTE, priority 2017, dated 2025).

Assays:
[1] = test system: semi-synthetic organism (SSO) (strain YZ3); assay: Replication and UBP retention in vivo in the semi-synthetic organism (streptavidin biotin shift, PAGE), Example 1; assay type: cell-based, Escherichia coli; details: for UBP retention in vivo, in words: dTPT3TP analog paired with dNaMTP, discussion
Experimental: All bacteria were cultured in 100 μL of liquid 2×YT media (casein peptone 16 g/L, yeast extract 10 g/L, NaCl 5 g/L) supplemented with potassium phosphate (50 mM, pH 7) in 96-well microwell plates. When noted, antibiotics were used at the following concentrations: chloramphenicol, 5 μg/mL; ampicillin, 100 μg/mL. Cell growth, indicated as OD600, was measured using a Perkin Elmer EnVision 2103 Multilabel Reader with a 590/20 nm filter. Unless otherwise stated, molecular biology reagents were purchased from New England Biolabs (Ipswich, MA) and were used according to the manufacturer's protocols. As necessary, purification of nucleic acids was accomplished by micro-elution columns (Zymo Research Corp; Irvine, CA). All natural oligonucleotides were purchased from IDT (San Diego, CA), and oligonucleotides containing dNaM were synthesized by Biosearch Technologies (Petaluma, CA) with purification by reverse phase cartridge. Unnatural nucleotide triphosphates were prepared, and confirmed by MALDI-TOF and UV/Vis.
Plasmids containing the dNaM-dTPT3 UBP were prepared and used to transform the semi-synthetic organism (SSO). To create a template for in vivo replication assays, Golden Gate assembly was used to construct a derivative of the pUC19 plasmid in which a single dNaM-dTPT3 UBP was embedded within the TK1 sequence ([…]; […]), a context within which the UBP is well replicated in the SSO. Plasmids were then used to transform the SSO (strain YZ3). Following transformation, the SSO was allowed to recover at 37° C. for 1 h in media containing dNaMTP (125 μM) and dTPT3TP (25 μM). Cells were pelleted by centrifugation, resuspended in fresh media lacking unnatural triphosphates, split into 100-μL aliquots and then used to inoculate cultures containing different pairs of unnatural triphosphates at the specified concentrations. When the cell density reached an OD600 of ˜0.7, cells were pelleted and plasmids were recovered and PCR amplified with d5SICSTP and a biotinylated analog of dNaMTP, and UBP retention was determined by comparing the intensity of the streptavidin shifted and unshifted bands via PAGE.

[2] = PCR amplification in vitro (SAR named in the discussion); assay type: biochemical; details: paired with any analog

Cc1ccc2c(=O)n(C3CC(O)C(COP(=O)(O)OP(=O)(O)OP(=O)(O)O)O3)ccc2c1 (stereo not shown) [d5MICSTP]
UBP retention ([1]; context 1, dNaMTP 125 μM, dTPT3TP analog 10 μM): significant retention | UBP retention in vivo, in words [1]: reasonable retention in vivo | UBP retention in vivo, in words ([1]; listed as d5MICS): reasonably well, but only at low concentration | PCR amplification [2]: do not support PCR amplification
